# Measurements published in ChEMBL document CHEMBL5518242, “Discovery and Optimization of Novel Nonbile Acid FXR Agonists as Preclinical Candidates for the Treatment of Inflammatory Bowel Disease” (J Med Chem, 2024).
# Settings: human, caco-2
# Description: Permeability in human Caco-2 cells
smiles,measurement,value
Cn1cc(C(=O)O)c2ccc(N3CCC(OCc4c(-c5c(Cl)cccc5Cl)noc4C4CC4)CC3)cc21 [TERN-101],permeability,Permeable
